Where two headings read alike, the source gives them in different places. Positions of bridges follow the written chain, without caps; N, C: chain ends. Residues, ends and D or L forms follow the SMILES beside them.

Assay [1] has as its system S. aureus.
Assay [2] has as its system Alternaria alternata. The settings on record: 48 h.
Assay [3] concerns P. aeruginosa. The experiment in a line: Antibacterial microdilution assay. The assay is classed as cell-based. The following applies: CA-MHB, 37 °C 48 h; for Antibacterial activity against P. aeruginosa: concentrations up to 80 µM. On the technique in general: In broth dilution the organism is exposed to a series of concentrations in liquid medium.
Assay [4] deals with E. coli. In words: Antibacterial microdilution assay. It is filed as cell-based, Escherichia coli. The settings on record: CA-MHB, 37 °C 48 h; for Antibacterial activity against E. coli: concentrations up to 80 µM.
For assay [5], the system named is filamentous fungi and oomycetes. The following applies: cited from earlier work.
The subject of assay [6] is C. albicans. The following applies: 48 h.
Assay [7] deals with Aspergillus niger. The settings on record: 48 h.
For assay [8], the system named is F. graminearum.
The test system of assay [9] is Bipolaris sorokiniana. The following applies: 48 h.
The subject of assay [10] is F. solani. The settings on record: 48 h.
Assay [11] concerns Fusarium oxysporum. The following applies: 48 h.
The mark [12] stands for this setting: Table S1, microdilution, YPDB, OD600, growth control +, negative control -.
Where [13] appears, read: read-out: Antifungal activity IC50, F. graminearum, Table 1, native vs truncated forms, potato–dextrose broth, 10^4–10^5 conidia per mL, 25 °C 48 h, 50% inhibition of spore germination, light microscopy, three replicates.

Take `CSCC[C@@H]1NC(=O)[C@@H]2CSSC[C@H](NC(=O)[C@H](CCC(=O)O)NC(=O)[C@H](CCC(N)=O)NC(=O)[C@H](C(C)C)NC(=O)[C@H](CCCNC(=N)N)NC(=O)[C@H](Cc3c[nH]c4ccccc34)NC(=O)[C@@H]3CCCN3C(=O)[C@H](CCC(=O)O)NC(=O)[C@H](CC(=O)O)NC(=O)[C@H](CCC(=O)O)NC(=O)[C@H](Cc3c[nH]cn3)NC(=O)[C@H](CCCNC(=N)N)NC(=O)[C@H](CCCNC(=N)N)NC1=O)C(=O)N[C@@H](C(C)C)C(=O)N[C@@H](CO)C(=O)N[C@@H](CCC(N)=O)C(=O)N[C@H](C(=O)N[C@@H](CCCNC(=N)N)C(=O)N[C@@H](CCCNC(=N)N)C(=O)N[C@@H](CCCNC(=N)N)C(=O)N[C@@H](CCCNC(=N)N)C(=O)NCC(=O)NCC(=O)NCC(=O)N[C@@H](CC(=O)O)C(=O)O)CSSC[C@H](NC(=O)[C@H](CO)NC(=O)CNC(=O)[C@H](CCCNC(=N)N)NC(=O)CNC(=O)[C@H](CO)NC(=O)CN)C(=O)N[C@@H](CCCNC(=N)N)C(=O)N[C@@H](CO)C(=O)N[C@@H](CCC(N)=O)C(=O)N2` [EcAMP1-WT] (H-GSGRGSCRSQCMRRHEDEPWRVQECVSQCRRRRGGGD-OH; disulfide 7-29, 11-25; N-terminus and C-terminus assumed): the concentration for half-maximal inhibition (IC50) (commonly the concentration that inhibits the measured activity by half) in assay [1] (48 h) is 5 µM; in assay [2], 18.4 ± 2.7 µM; in assay [5] (read-out: IC50 against filamentous fungi and oomycetes) it was 4.5 to 18.2 µM; in assay [6], 0.625 µM; in [7], more than 32 µM; in assay [8] (setting [13]) it was 6.8 ± 1 µM. Further, in assay [9], the half-maximal inhibitory concentration (IC50) is 25.7 ± 3.6 µM. Also, the “Growth of S. aureus at 5 µM peptide” value in [1] (Table S2, 5 µM, microdilution, CA-MHB, 37 °C 48 h, OD600, growth control +, negative control -) is given as “MIC50”. Further, in assay [1] (Table S2, 10 µM, microdilution, CA-MHB, 37 °C 48 h, OD600, growth control +, negative control -), the “Growth of S. aureus at 10 µM peptide” value is given as “MIC95”. For the same compound, the “Growth of S. aureus at 20 µM peptide” value in assay [1] (Table S2, 20 µM, microdilution, CA-MHB, 37 °C 48 h, OD600, growth control +, negative control -) is on record as “MIC99”. In assay [3], the “Antibacterial activity against P. aeruginosa” value is “inactive”. Besides, the “Antibacterial activity against E. coli” value in assay [4] is “inactive”. In addition, the “Number of microbes for which inhibition activity was registered” value in [5] was 11. Moreover, the “Growth of C. albicans at 0.625 µM peptide” value in [6] (Table S1, 0.625 µM, microdilution, YPDB, OD600, growth control +, negative control -) is recorded as “MIC50”. For the same compound, the “Growth of C. albicans at 1.25 µM peptide” value in assay [6] (setting [12]) is recorded as “MIC99”. In assay [6] (microdilution, YPDB, range 0.625–80 µM, OD600), the “MIC99, almost complete suppression of C. albicans” value amounted to 1.25 µM.
As to `CSCC[C@@H]1NC(=O)[C@@H]2CSSC[C@H](NC(=O)[C@H](CCC(=O)O)NC(=O)[C@H](CCC(N)=O)NC(=O)[C@H](C(C)C)NC(=O)[C@H](CCCNC(=N)N)NC(=O)[C@H](Cc3c[nH]c4ccccc34)NC(=O)[C@@H]3CCCN3C(=O)[C@H](CCC(=O)O)NC(=O)[C@H](CC(=O)O)NC(=O)[C@H](CCC(=O)O)NC(=O)[C@H](Cc3c[nH]cn3)NC(=O)[C@H](CCCNC(=N)N)NC(=O)[C@H](CCCNC(=N)N)NC1=O)C(=O)N[C@@H](C(C)C)C(=O)N[C@@H](CO)C(=O)N[C@@H](CCC(N)=O)C(=O)N[C@H](C(=O)O)CSSC[C@H](N)C(=O)N[C@@H](CCCNC(=N)N)C(=O)N[C@@H](CO)C(=O)N[C@@H](CCC(N)=O)C(=O)N2` [EcAMP1-X1] (H-CRSQCMRRHEDEPWRVQECVSQC-OH; disulfide 1-23, 5-19 (inferred); N-terminus assumed), in [1] (microdilution, CA-MHB, 37 °C 48 h, concentrations up to 80 µM), the “Antibacterial activity against S. aureus” value was “absolutely inactive”. Also, the IC50 was 21.1 ± 2.4 µM in assay [2]; 6.9 ± 0.7 µM in assay [10]; more than 32 µM in assay [7]; 9 ± 1.4 µM in assay [8] (setting [13]); more than 32 µM in [9]; 15.4 ± 1.1 µM in assay [11]. Also, the “Antibacterial activity against P. aeruginosa” value in assay [3] was “absolutely inactive”. Also, in [4], the “Antibacterial activity against E. coli” value was “absolutely inactive”. Also, in assay [6] (microdilution, YPDB, concentrations up to 80 µM), the “Activity against C. albicans” value is “absolutely inactive”.
Consider `CSCC[C@@H]1NC(=O)[C@@H](N)CSSC[C@@H](C(=O)O)NC(=O)[C@H](CCC(=O)O)NC(=O)[C@H](CCC(N)=O)NC(=O)[C@H](C(C)C)NC(=O)[C@H](CCCNC(=N)N)NC(=O)[C@H](Cc2c[nH]c3ccccc23)NC(=O)[C@@H]2CCCN2C(=O)[C@H](CCC(=O)O)NC(=O)[C@H](CC(=O)O)NC(=O)[C@H](CCC(=O)O)NC(=O)[C@H](Cc2c[nH]cn2)NC(=O)[C@H](CCCNC(=N)N)NC(=O)[C@H](CCCNC(=N)N)NC1=O` [EcAMP1-X2] (H-CMRRHEDEPWRVQEC-OH; disulfide 1-15), for which the half-inhibitory concentration (IC50) was more than 32 µM in assay [2]; 11 ± 1.9 µM in assay [10]; more than 32 µM in assay [7]; 18.1 ± 2.1 µM in [8] (setting [13]); more than 32 µM in assay [9]; 23.2 ± 2.6 µM in assay [11].
`CSCC[C@@H]1NC(=O)[C@@H]2CSSC[C@H](NC(=O)[C@H](CCC(=O)O)NC(=O)[C@H](CCC(N)=O)NC(=O)[C@H](C(C)C)NC(=O)[C@H](CCCNC(=N)N)NC(=O)[C@H](C)NC(=O)[C@@H]3CCCN3C(=O)[C@H](CCC(=O)O)NC(=O)[C@H](CC(=O)O)NC(=O)[C@H](CCC(=O)O)NC(=O)[C@H](Cc3c[nH]cn3)NC(=O)[C@H](CCCNC(=N)N)NC(=O)[C@H](CCCNC(=N)N)NC1=O)C(=O)N[C@@H](C(C)C)C(=O)N[C@@H](CO)C(=O)N[C@@H](CCC(N)=O)C(=O)N[C@H](C(=O)N[C@@H](CCCNC(=N)N)C(=O)N[C@@H](CCCNC(=N)N)C(=O)N[C@@H](CCCNC(=N)N)C(=O)N[C@@H](CCCNC(=N)N)C(=O)NCC(=O)NCC(=O)NCC(=O)N[C@@H](CC(=O)O)C(=O)O)CSSC[C@H](NC(=O)[C@H](CO)NC(=O)CNC(=O)[C@H](CCCNC(=N)N)NC(=O)CNC(=O)[C@H](CO)NC(=O)CN)C(=O)N[C@@H](CCCNC(=N)N)C(=O)N[C@@H](CO)C(=O)N[C@@H](CCC(N)=O)C(=O)N2` [EcAMP1-X3] (H-GSGRGSCRSQCMRRHEDEPARVQECVSQCRRRRGGGD-OH; disulfide 7-29, 11-25; N-terminus and C-terminus assumed): the half-inhibitory concentration (IC50) was determined as 8.6 ± 1.5 µM in assay [10], 9.9 ± 1.9 µM in [8] (48 h) and 15 ± 2.1 µM in assay [11].
Take `CSCC[C@@H]1NC(=O)[C@@H]2CSSC[C@H](NC(=O)[C@H](CCC(=O)O)NC(=O)[C@H](CCC(N)=O)NC(=O)[C@H](C(C)C)NC(=O)[C@H](CCCNC(=N)N)NC(=O)[C@H](Cc3c[nH]c4ccccc34)NC(=O)[C@@H]3CCCN3C(=O)[C@H](CCC(=O)O)NC(=O)[C@H](CC(=O)O)NC(=O)[C@H](CCC(=O)O)NC(=O)[C@H](Cc3c[nH]cn3)NC(=O)[C@H](CCCNC(=N)N)NC(=O)[C@H](CCCNC(=N)N)NC1=O)C(=O)N[C@@H](C(C)C)C(=O)N[C@@H](CO)C(=O)N[C@@H](CCC(N)=O)C(=O)N[C@H](C(=O)N[C@@H](CCCNC(=N)N)C(=O)N[C@@H](CCCNC(=N)N)C(=O)O)CSSC[C@H](NC(=O)[C@H](CO)NC(=O)CNC(=O)[C@H](CCCNC(=N)N)NC(=O)CNC(=O)[C@H](CO)NC(=O)CN)C(=O)N[C@@H](CCCNC(=N)N)C(=O)N[C@@H](CO)C(=O)N[C@@H](CCC(N)=O)C(=O)N2` [EcAMP1-X4] (H-GSGRGSCRSQCMRRHEDEPWRVQECVSQCRR-OH; disulfide 7-29, 11-25; N-terminus and C-terminus assumed): the values for the concentration for half-maximal inhibition (IC50) in [10], in assay [8] (48 h) and in assay [11] were 7.8 ± 0.7 µM, 8.5 ± 1.2 µM and 15.8 ± 1.6 µM, respectively.
On to “LL37: linear α-helical antimicrobial peptide cathelicidin, positive control (LLGDFFRKSKEKIGKEFKRIVQRIKDFLRNLVPRTES; Antibacterial peptide LL-37; UniProt P49913 134-170, looked up) [reference compound]”, for which the “Growth of S. aureus at 0.625 µM peptide” value in assay [1] (Table S2, 0.625 µM, microdilution, CA-MHB, 37 °C 48 h, OD600, growth control +, negative control -) was “MIC50”. Moreover, in assay [1] (Table S2, 1.25 µM, microdilution, CA-MHB, 37 °C 48 h, OD600, growth control +, negative control -), the “Growth of S. aureus at 1.25 µM peptide” value is recorded as “MIC99”. Further, the “Growth of P. aeruginosa at 1.25 µM peptide” value in [3] (Table S4, 1.25 µM, OD600, growth control +, negative control -) is listed as “MIC99”. Further, in assay [4] (Table S3, 1.25 µM, OD600, growth control +, negative control -), the “Growth of E. coli at 1.25 µM peptide” value is given as “MIC99”. Also, the “Growth of C. albicans at 1.25 µM peptide” value in assay [6] (setting [12]) is reported as “MIC99”.
